ChEMBL document CHEMBL1136062 (2002)
Converted amounts (≈) assume the structure as drawn.

Experiments:
Assay type in all cases: functional
[1] = tested on: Enterococcus faecium; assay: Tested in vitro for its antibacterial activity against vancomycin resistant Enterococcus faecium (CL4931)
[2] = tested on: Enterococcus faecium; assay: Tested in vitro for its antibacterial activity against vancomycin resistant Enterococcus faecium (MB5244)
[3] = tested on: Enterococcus faecium; assay: Tested in vitro for its antibacterial activity against vancomycin sensitive Enterococcus faecium (RLA1)
[4] = tested on: Enterococcus faecalis; assay: Tested in vitro for its antibacterial activity against vancomycin resistant Enterococcus faecalis (MB4877)
[5] = tested on: Enterococcus faecalis; assay: Tested in vitro for its antibacterial activity against vancomycin sensitive Enterococcus faecalis (MB2864)
[6] = tested on: Staphylococcus aureus; assay: Tested in vitro for its antibacterial activity against methicillin resistant Staphylococcus aureus (MH76)
[7] = tested on: Staphylococcus aureus; assay: Tested in vitro for its antibacterial activity against methicillin sensitive Staphylococcus aureus (MB2985)
[8] = tested on: Staphylococcus aureus; assay: In vitro antibacterial activity against vancomycin intermediate resistant Staphylococcus aureus (CL5706)
[9] = tested on: Staphylococcus aureus; assay: In vitro antibacterial activity against vancomycin intermediate resistant Staphylococcus aureus (CL5705)
[10] = tested on: Staphylococcus aureus; assay: Tested in vitro for its antibacterial activity against methicillin resistant Staphylococcus aureus (COL)
[11] = tested on: Staphylococcus aureus; assay: Tested in vitro for its antibacterial activity against methicillin resistant Staphylococcus aureus (Mh76)

| SMILES | MIC [1] [mg/L] | MIC [2] [mg/L] | MIC [3] [mg/L] | MIC [4] [mg/L] | MIC [5] [mg/L] | MIC [6] [mg/L] | MIC [7] [mg/L] | MIC [8] [mg/L] | MIC [9] [mg/L] | MIC [10] [mg/L] | MIC [11] [mg/L] |
| --- | --- | --- | --- | --- | --- | --- | --- | --- | --- | --- | --- |
| CN[C@H](CC(C)C)C(=O)N[C@H]1C(=O)N[C@@H](CC(N)=O)C(=O)N[C@H]2C(=O)N[C@H]3C(=O)N[C@H](C(=O)N[C@H](C(=O)O)c4cc(O)cc(O)c4-c4cc3ccc4O)[C@H](O)c3ccc(c(Cl)c3)Oc3cc2cc(c3OC2OC(C[N+]34CCN(CC3)CC4)C(O)C(O)C2OC2CC(C)(NCc3ccc(OCc4ccc(Cl)c(Cl)c4)cc3)C(O)C(C)O2)Oc2ccc(cc2Cl)[C@H]1O (some centres undefined) | > 32 | 1 | 0.5 | 8 | 2 | 1 | 1 | 2 | 2 | 1 | – |
| CN[C@H](CC(C)C)C(=O)N[C@H]1C(=O)N[C@@H](CC(N)=O)C(=O)N[C@H]2C(=O)N[C@H]3C(=O)N[C@H](C(=O)N[C@H](C(=O)O)c4cc(O)cc(O)c4-c4cc3ccc4O)[C@H](O)c3ccc(c(Cl)c3)Oc3cc2cc(c3OC2OC(C[N+](C)(C)C)C(O)C(O)C2OC2CC(C)(NCc3ccc(OCc4ccc(Cl)c(Cl)c4)cc3)C(O)C(C)O2)Oc2ccc(cc2Cl)[C@H]1O (some centres undefined) | > 64 | 1 | 0.5 | 16 | 1 | 0.5 | 0.5 | 2 | 2 | 0.5 | – |
| CN[C@H](CC(C)C)C(=O)N[C@H]1C(=O)N[C@@H](CC(N)=O)C(=O)N[C@H]2C(=O)N[C@H]3C(=O)N[C@H](C(=O)N[C@H](C(=O)O)c4cc(O)cc(O)c4-c4cc3ccc4O)[C@H](O)c3ccc(c(Cl)c3)Oc3cc2cc(c3OC2OC(C[N+](C)(C)CCO)C(O)C(O)C2OC2CC(C)(NCc3ccc(OCc4ccc(Cl)c(Cl)c4)cc3)C(O)C(C)O2)Oc2ccc(cc2Cl)[C@H]1O (some centres undefined) | > 64 | 4 | 0.5 | 8 | 2 | 1 | 2 | 2 | 2 | 1 | – |
| CN[C@H](CC(C)C)C(=O)N[C@H]1C(=O)N[C@@H](CC(N)=O)C(=O)N[C@H]2C(=O)N[C@H]3C(=O)N[C@H](C(=O)N[C@H](C(=O)O)c4cc(O)cc(O)c4-c4cc3ccc4O)[C@H](O)c3ccc(c(Cl)c3)Oc3cc2cc(c3OC2OC(CN(C)C)C(O)C(O)C2OC2CC(C)(NCc3ccc(OCc4ccc(Cl)c(Cl)c4)cc3)C(O)C(C)O2)Oc2ccc(cc2Cl)[C@H]1O (some centres undefined) | 32 (≈ 18.4 µM) | 1 (≈ 0.574 µM) | ≤ 0.03 | 16 (≈ 9.19 µM) | 1 (≈ 0.574 µM) | 0.25 (≈ 0.144 µM) | ≤ 0.03 | 0.5 (≈ 0.287 µM) | 1 (≈ 0.574 µM) | 0.5 (≈ 0.287 µM) | – |
| CN[C@H](CC(C)C)C(=O)N[C@H]1C(=O)N[C@@H](CC(N)=O)C(=O)N[C@H]2C(=O)N[C@H]3C(=O)N[C@H](C(=O)N[C@H](C(=O)O)c4cc(O)cc(O)c4-c4cc3ccc4O)[C@H](O)c3ccc(c(Cl)c3)Oc3cc2cc(c3O[C@@H]2O[C@H](CO)[C@@H](O)[C@H](O)[C@H]2O[C@H]2C[C@](C)(N)[C@H](O)[C@H](C)O2)Oc2ccc(cc2Cl)[C@H]1O [VANCOMYCIN] | 2050 (≈ 1410 µM) | 16 (≈ 11 µM) | – | 2050 (≈ 1410 µM) | – | – | – | 8 (≈ 5.52 µM) | – | – | – |
| CN[C@H](CC(C)C)C(=O)N[C@H]1C(=O)N[C@@H](CC(N)=O)C(=O)N[C@H]2C(=O)N[C@H]3C(=O)N[C@H](C(=O)N[C@H](C(=O)O)c4cc(O)cc(O)c4-c4cc3ccc4O)[C@H](O)c3ccc(c(Cl)c3)Oc3cc2cc(c3OC2OC(C[N+](C)(C)CCN(C)C)C(O)C(O)C2OC2CC(C)(NCc3ccc(OCc4ccc(Cl)c(Cl)c4)cc3)C(O)C(C)O2)Oc2ccc(cc2Cl)[C@H]1O (some centres undefined) | > 64 | 8 | 1 | > 64 | 4 | – | 2 | 4 | 2 | 2 | 2 |
| CN[C@H](CC(C)C)C(=O)N[C@H]1C(=O)N[C@@H](CC(N)=O)C(=O)N[C@H]2C(=O)N[C@H]3C(=O)N[C@H](C(=O)N[C@H](C(=O)O)c4cc(O)cc(O)c4-c4cc3ccc4O)[C@H](O)c3ccc(c(Cl)c3)Oc3cc2cc(c3OC2OC(C[N+](C)(C)Cc3ccccc3)C(O)C(O)C2OC2CC(C)(NCc3ccc(OCc4ccc(Cl)c(Cl)c4)cc3)C(O)C(C)O2)Oc2ccc(cc2Cl)[C@H]1O (some centres undefined) | > 64 | 1 | 0.25 | 16 | 2 | 0.25 | 0.25 | 1 | 1 | 0.5 | – |
| CNCC1OC(Oc2c3cc4cc2Oc2ccc(cc2Cl)[C@@H](O)[C@@H](NC(=O)[C@@H](CC(C)C)NC)C(=O)N[C@@H](CC(N)=O)C(=O)N[C@H]4C(=O)N[C@H]2C(=O)N[C@H](C(=O)N[C@H](C(=O)O)c4cc(O)cc(O)c4-c4cc2ccc4O)[C@H](O)c2ccc(c(Cl)c2)O3)C(OC2CC(C)(NCc3ccc(OCc4ccc(Cl)c(Cl)c4)cc3)C(O)C(C)O2)C(O)C1O (some centres undefined) | 32 (≈ 18.5 µM) | 1 (≈ 0.579 µM) | 0.03 (≈ 0.0174 µM) | 4 (≈ 2.32 µM) | 0.25 (≈ 0.145 µM) | 0.12 (≈ 0.0695 µM) | ≤ 0.03 | 0.25 (≈ 0.145 µM) | 1 (≈ 0.579 µM) | 0.12 (≈ 0.0695 µM) | – |
